From ChEMBL document CHEMBL1131491, “Comparative binding energy analysis of HIV-1 protease inhibitors: incorporation of solvent effects and validation as a powerful tool in receptor-based drug design” (J Med Chem, 1998)

Target: Human immunodeficiency virus type 1 protease (Human immunodeficiency virus 1, UniProt Q72874)
Assay: Inhibitory activity against HIV-1 protease.

IC50 [nM]	Structure (SMILES)
562	CC(C)(C)OC(=O)N[C@@H](Cc1ccccc1)[C@@H](O)CC(=O)N[C@H]1c2ccccc2C[C@H]1O
7.59	CC(C)(C)NC(=O)[C@@H]1C[C@@H]2CCCC[C@@H]2CN1C[C@@H](O)C[C@@H](Cc1ccccc1)C(=O)N[C@H]1c2ccccc2CC1O (some centres not stated)
0.692	CC(C)(C)OC(=O)N[C@@H](Cc1ccccc1)[C@@H](O)C[C@@H](Cc1ccccc1)C(=O)N[C@H]1c2ccccc2CC[C@H]1O
0.178	CC(C)(C)OC(=O)N[C@@H](Cc1ccccc1)[C@@H](O)C[C@@H](Cc1ccccc1)C(=O)N[C@H]1c2ccccc2OC[C@H]1O
3020	CC(C)(C)NC(=O)[C@@H]1C[C@@H]2CCCC[C@@H]2CN1C[C@@H](O)[C@H](Cc1ccccc1)NC(=O)OC(C)(C)C
145	C[C@@H](NC(=O)[C@H](Cc1ccccc1)C[C@H](O)[C@H](Cc1ccccc1)NC(=O)OC(C)(C)C)c1ccccc1
9.55	CC(C)(C)OC(=O)N[C@@H](Cc1ccccc1)[C@@H](O)C[C@@H](Cc1ccccc1)C(=O)N[C@H]1C=CC[C@H]1O
